Results as given in ChEMBL document CHEMBL1201862, “PubChem BioAssay data set” (2004).
“And” between values parts separate entries of the source, which are not always exact repeats. Identical values can stand only once.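 Five compound concentrations were applied to cells in 96-well plates for 48 hours; endpoints were derived by simple linear interpolation of the resulting dose-response curve. GI50: concentration for 50% inhibition of growth.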 The source made the active and inactive calls. Rule as the data show it: active = GI50 up to about 1.1 µM and inactive = higher. *1 amine or outer side, *2 acyl side, *3 side chain or, on linkers, in order; H or OH if unused. Where a SMILES comes first, the peptide text is derived from it. [ ]: non-standard residue; d: D form. The star is where a group is joined. ξ: configuration not given here. NMeY = CN[C@@H](Cc1ccc(O)cc1)C(=O)O; Ethylenediamine = C(CN[*:2])N[*:1]; ξNMeL = CNC(CC(C)C)C(=O)O; Cbz = O=C(OCc1ccccc1)*; Lac = C[C@H](O)C(=O)O; ξA = CC(N)C(=O)O

Legend:
Experiment in all cases: DTP human tumour cell line panel, 48 h
BT-549 = tested on: BT-549
CAKI-1 = tested on: CAKI-1
EKVX = tested on: EKVX
HCC 2998 = tested on: HCC 2998
HOP-62 = tested on: HOP-62
HOP-92 = tested on: HOP-92
MDA-MB-435 = tested on: MDA-MB-435
NCI-H226 = tested on: NCI-H226
NCI-H23 = tested on: NCI-H23
NCI-H522 = tested on: NCI-H522
OVCAR-4 = tested on: OVCAR-4
OVCAR-5 = tested on: OVCAR-5
SF-295 = tested on: SF-295
SF-539 = tested on: SF-539
SK-MEL-5 = tested on: SK-MEL-5
SN12C = tested on: SN12C
SNB-19 = tested on: SNB-19
SR = tested on: SR
UACC-257 = tested on: UACC-257

Measured: GI50

O=C(/C=C/c1ccccc1)OCC1=C[C@@H](O)[C@@H]2C=CO[C@@H](OC3OC(CO)C(O)C(O)C3O)[C@H]12 (stereo partly drawn)
inactive: BT-549 > 100 µM | CAKI-1 > 100 µM | EKVX > 100 µM | HCC 2998 > 100 µM | HOP-62 > 100 µM | HOP-92 > 100 µM | MDA-MB-435 > 100 µM | NCI-H226 > 100 µM | NCI-H23 > 100 µM | NCI-H522 > 100 µM | OVCAR-4 67.6 µM | OVCAR-5 > 100 µM | SF-295 > 100 µM | SF-539 > 100 µM | SK-MEL-5 > 100 µM | SN12C > 100 µM | SNB-19 95.9 µM | SR > 100 µM | UACC-257 > 100 µM

CC(=O)OC(/C=C/c1ccccc1)P1(=O)N(CC(C)(C)C)[C@@H]2CCCC[C@H]2N1CC(C)(C)C (stereo partly drawn)
inactive: BT-549 11.5 µM and 14.4 µM | CAKI-1 12.8 µM and 8.99 µM | EKVX 5.27 µM and 5.68 µM | HCC 2998 5 µM and 2.77 µM | HOP-62 16.2 µM and 13.1 µM | HOP-92 12 µM | MDA-MB-435 7.36 µM and 10 µM | NCI-H226 6.87 µM and 10.9 µM | NCI-H23 7.05 µM and 5.18 µM | NCI-H522 3.76 µM and 3.32 µM | OVCAR-4 5.35 µM and 5.22 µM | OVCAR-5 10.7 µM and 9.86 µM | SF-295 5.87 µM and 3.86 µM | SF-539 8.11 µM and 13.6 µM | SK-MEL-5 5.26 µM and 6.3 µM | SN12C 10.4 µM and 7.59 µM | SNB-19 10.5 µM and 8.15 µM | SR 2.92 µM and 4.02 µM | UACC-257 4.07 µM and 3.3 µM

CC1CC(=O)N(N(C)C)C(C#N)(C#N)C1(C#N)C#N (stereo not drawn)
inactive: BT-549 15.7 µM | CAKI-1 2.3 µM | EKVX 23 µM | HCC 2998 18.5 µM | HOP-62 26.1 µM | HOP-92 7.6 µM | MDA-MB-435 17 µM | NCI-H226 28.1 µM | NCI-H23 20 µM | NCI-H522 2.77 µM | OVCAR-4 18.3 µM | OVCAR-5 23.9 µM | SF-295 > 50.1 µM | SF-539 24.2 µM | SK-MEL-5 21.9 µM | SN12C 21 µM | SNB-19 28.7 µM | SR 4.99 µM | UACC-257 15.1 µM

Nc1nc(O)c(Br)c(-c2cccc([N+](=O)[O-])c2)n1
inactive: BT-549 38.6 µM | CAKI-1 58.5 µM | EKVX > 100 µM | HCC 2998 > 100 µM | HOP-62 > 100 µM | HOP-92 > 76 µM | MDA-MB-435 > 100 µM | NCI-H226 49.9 µM | NCI-H23 40.9 µM | NCI-H522 26.4 µM | OVCAR-4 > 100 µM | OVCAR-5 > 69.8 µM | SF-295 > 50.4 µM | SF-539 > 58.1 µM | SK-MEL-5 > 59.6 µM | SN12C > 100 µM | SNB-19 25.9 µM | SR 64 µM | UACC-257 > 55 µM

O=C1CC[C@@]2(O)[C@H]3Cc4ccc(-c5ccccc5)c5c4[C@@]2(CCN3CC2CC2)[C@H]1O5
inactive: BT-549 14.3 µM | CAKI-1 18.3 µM | EKVX 19.6 µM | HCC 2998 18.4 µM | HOP-62 22.4 µM | HOP-92 16.2 µM | MDA-MB-435 13.2 µM | NCI-H226 20.3 µM | NCI-H23 24.1 µM | NCI-H522 14.7 µM | OVCAR-4 35.9 µM | OVCAR-5 17.2 µM | SF-295 19.2 µM | SF-539 16.8 µM | SK-MEL-5 14.2 µM | SN12C 24.2 µM | SNB-19 25.5 µM | SR 25.9 µM | UACC-257 16 µM

COc1ccc(C[C@@H](C(=O)NCCNC(=O)C(CC(C)C)N(C)C(=O)[C@@H]2CCCN2C(=O)[C@H](C)O)N(C)C(=O)[C@@H]2CCCN2C(=O)[C@H](CC(C)C)NC(=O)C(C)NC(=O)OCc2ccccc2)cc1 (stereo partly drawn) (Cbz-[ξA]LP[NMeY](Me)-{Ethylenediamine-ξNMeL-Pro-Lac})
inactive: BT-549 > 100 µM | CAKI-1 > 100 µM | EKVX > 100 µM | HCC 2998 > 100 µM | HOP-62 > 100 µM | HOP-92 68.9 µM | MDA-MB-435 54.2 µM | NCI-H226 > 100 µM | NCI-H23 > 100 µM | NCI-H522 > 100 µM | OVCAR-4 > 100 µM | OVCAR-5 > 100 µM | SF-295 > 100 µM | SF-539 > 100 µM | SK-MEL-5 33.5 µM | SN12C > 100 µM | SNB-19 > 100 µM | SR 54.3 µM | UACC-257 46.1 µM

O=c1[nH]c2ccc(C(F)(F)F)cc2nc1C(F)(F)F
inactive: BT-549 22.2 µM | CAKI-1 30.3 µM | EKVX 29.2 µM | HCC 2998 43.4 µM | HOP-62 18.3 µM | HOP-92 9.4 µM | MDA-MB-435 31.2 µM | NCI-H226 18.8 µM | NCI-H23 18.1 µM | NCI-H522 17.5 µM | OVCAR-4 36.6 µM | OVCAR-5 35.6 µM | SF-295 28.7 µM | SF-539 21.3 µM | SK-MEL-5 17.2 µM | SN12C 29.4 µM | SNB-19 28 µM | SR 39.4 µM | UACC-257 23.6 µM
